Article PMC11233931, “Remodeling tumor‐associated macrophage for anti‐cancer effects by rational design of irreversible inhibition of mitogen‐activated protein kinase‐activated protein kinase 2” (MedComm, 2024)

Key:
[1] = Cytotoxicity assays, summary over all cell lines; type: cell-based; conditions: range over three normal and six tumor cell lines
Excerpt: MK2, as a pivotal regulator of the well‐acknowledged p38 inflammation signaling pathway, is increasingly recognized for its critical role in the initiation and progression of cancer. Through an analysis of the clinical data from the TCGA database, we found the significant impact of MK2 on cancer. […] Moreover, macrophages are abundant in cancer, and such abundance correlates with poor prognosis in most malignancie.[17], [18], [19], [20] […] Additionally, the knockdown of MK2 using specific siRNA in macrophages also led to the downregulation of M2 markers. […] Moreover, compound 11’s effect on macrophages extended to inhibition of typical proinflammatory cytokines and crucial factors in inflammation‐driven tumorigenesis. […] These findings bolster the rationale for pursuing the development and application of MK2 inhibitors in the treatment of inflammation‐driven or macrophage‐rich cancers.
Cells was plated into 96-well plates and incubated overnight prior to introduction of varying concentrations of compounds or control solvent. Following a 72-hour exposure period, cell viability was determined using a Cell Counting Kit-8 assay (Life-iLab, China). Dose-response curves were fitted using a four-parameter method facilitated by SoftMax Pro, which was subsequently used for the computation of IC50 values.

TTK = biological target: T1, TTK (Homo sapiens, UniProt P33981); assay: Eurofins kinase selectivity profile, TTK; type: biochemical
T1 construct: purchased Eurofins (Celle Lévescault)
T1 sequence (P33981 1-857): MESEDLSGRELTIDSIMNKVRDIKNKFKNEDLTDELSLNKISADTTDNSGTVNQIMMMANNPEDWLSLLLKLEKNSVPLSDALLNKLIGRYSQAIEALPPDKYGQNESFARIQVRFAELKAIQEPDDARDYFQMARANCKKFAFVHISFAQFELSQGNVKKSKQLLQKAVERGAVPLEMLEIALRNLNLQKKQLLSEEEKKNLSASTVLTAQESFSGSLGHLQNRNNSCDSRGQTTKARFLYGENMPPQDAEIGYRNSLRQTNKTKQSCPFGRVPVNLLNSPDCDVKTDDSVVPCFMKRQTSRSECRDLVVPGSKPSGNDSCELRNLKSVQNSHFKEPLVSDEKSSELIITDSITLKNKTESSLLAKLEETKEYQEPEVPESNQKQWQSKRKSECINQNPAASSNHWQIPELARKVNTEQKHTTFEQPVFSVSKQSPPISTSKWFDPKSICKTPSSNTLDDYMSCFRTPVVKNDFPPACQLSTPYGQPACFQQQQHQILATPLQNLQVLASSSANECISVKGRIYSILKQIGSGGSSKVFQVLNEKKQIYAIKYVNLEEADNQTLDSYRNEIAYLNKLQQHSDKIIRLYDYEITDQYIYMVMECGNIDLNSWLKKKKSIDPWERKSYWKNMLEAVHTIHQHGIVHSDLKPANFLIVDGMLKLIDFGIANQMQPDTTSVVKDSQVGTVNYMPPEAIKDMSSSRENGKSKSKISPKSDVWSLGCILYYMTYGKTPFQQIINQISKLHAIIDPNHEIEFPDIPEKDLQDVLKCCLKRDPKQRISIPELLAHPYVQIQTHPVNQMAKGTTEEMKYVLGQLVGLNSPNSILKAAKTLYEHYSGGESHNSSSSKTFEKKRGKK
Experimental: Subsequently, to ascertain whether the high potency of compound 11 was specific for MK2, an additional 380 human recombinant protein kinases were screened.
To assess the impact of various compounds on MK2 kinase activity, we utilized the ADP‐Glo Assay Kit (Promega) following the manufacturer's instructions. Luminescence measurements were taken using a SpectraMax Paradigm reader. The inhibition percentage was calculated using the following formula: ((specific signalDMSO control − specific signal inhibitor)/(specific signalDMSO control)) × 100%. The IC50 values were determined employing dose–response curve fitting via Prism (Graph Pad). Additionally, Eurofins company (Celle Lévescault) conducted the analysis on compound 11’s inhibitory activity against 380 other human recombinant kinases at various concentrations.

p-Hsp27 = assay: Cellular washout assay, p-Hsp27 by western blot; type: cell-based; conditions: 1 h pretreatment, then LPS
Experimental: FIGURE 4 Targeting cellular MK2 signaling with irreversible inhibition by compound 11. (A and B) RT‐PCR analysis of IL‐1β, TNF‐α, and IL‐6 expression in Lipopolysaccharides (LPS)‐stimulated THP‐1 (A) and RAW264.7 (B) Cells, with pre‐treatment of compound 11 for 3 h followed by LPS (3 h) stimulation. (C) The inhibitory effects of compound 11 on TNF‐α and IL‐6 production in LPS‐stimulated RAW264.7 macrophages for 24 h, measured by ELISA. (D and E) Compound 11, alongside CC‐99677 and PF‐3644022, suppressed MK2 pathway activation, validated through western blot analysis post‐LPS stimulation. Cells were preincubated with the specified compounds for 1 h prior to LPS stimulation (100 ng/mL, 30 min). (F) Distinguishes the mode of action between compound 11 and CC‐99677. The complex structure of a small molecule and MK2 (3R2Y) with the same parent nucleus as compound 11 is shown in cyans, and the complex structure of a small molecule and MK2 (3FYJ) with the same parent nucleus as CC‐99677 is shown in orange. (G–I) The effect of indicated inhibitor on Hsp27 phosphorylation following inhibitor washout. Cells were pretreated with indicated compounds for 1 h and then washed to remove free compound and incubated for a further indicated time before activation with LPS. In (A–C), LPS (100 ng/mL) served as the stimulation control, while untreated cells were the baseline control. The data represent as mean ± SD from triplicates, with statistical analysis conducted via one‐way analysis of variance (ANOVA) (^## p < 0.01, ^### p < 0.001 vs. stimulation control; ^***p < 0.001 vs. baseline control).
Furthermore, to validate the irreversible mechanism of action of compound 11 at the cellular level, we performed a cellular washout assay and assessed p‐Hsp27 levels. The established MK2 irreversible inhibitor CC‐99677 served as positive control, while the reversible ATP‐competitive inhibitor PF‐3644022 was used as negative control. […] In contrast, only 1 h after PF‐3644022 washout, p‐Hsp27 level was totally recovered (Figure 4I).
After the treatment outlined in the figure legends, cells were lysed using 1× sodium dodecyl sulfate (SDS) solution. The lysates were then subjected to SDS‐polyacrylamide gel electrophoresis for separation, followed by transferring onto nitrocellulose membranes. The membranes were incubated with primary antibodies specific to phospho‐MK2, phospho‐Hsp27, MK2, Hsp27, GAPDH, and β‐actin (Cell Signaling Technology), followed by horseradish peroxidase‐conjugated anti‐mouse or anti‐rabbit IgG secondary antibodies. Protein bands were detected using an enhanced chemiluminescence detection reagent (Thermo Fisher Scientific).

C=CC(=O)Nc1cc(-c2cc(-c3cc4c([nH]3)CCNC4=O)ccn2)ccc1OC(F)(F)F [compound 11]
IC50 at 72 h [1]: 30 to 50 µM | IC50 (TTK): > 1000 nM | inhibition at 0.01 µM (TTK; TTK(h), 10 nM, read-out: Inhibition rate): -1% | inhibition at 0.1 µM (TTK; TTK(h), 100 nM, read-out: Inhibition rate): 7% | inhibition at 1 µM (TTK; TTK(h), 1000 nM, read-out: Inhibition rate): 43% | p-Hsp27 level 3 h after inhibitor washout (p-Hsp27; 3 h): still significantly inhibited | time after inhibitor washout at which p-Hsp27 level recovered (p-Hsp27): 24 h
